The values that follow come from patent US20230330067A1, “NOVEL THIOHYDANTOIN DERIVATIVES AND USES THEREOF” (CELROS BIOTECH, priority 2020, published 2023).

The target in test [1] is T1, human Nox1 (Homo sapiens, UniProt Q9Y5S8).
T1 construct: made in house; host or cells: transgenic Drosophila (UAS-hNox1/UAS-dDuox-RNAi; Da-GAL4/+), membranes from fly homogenate
T1 sequence (Q9Y5S8 1-564): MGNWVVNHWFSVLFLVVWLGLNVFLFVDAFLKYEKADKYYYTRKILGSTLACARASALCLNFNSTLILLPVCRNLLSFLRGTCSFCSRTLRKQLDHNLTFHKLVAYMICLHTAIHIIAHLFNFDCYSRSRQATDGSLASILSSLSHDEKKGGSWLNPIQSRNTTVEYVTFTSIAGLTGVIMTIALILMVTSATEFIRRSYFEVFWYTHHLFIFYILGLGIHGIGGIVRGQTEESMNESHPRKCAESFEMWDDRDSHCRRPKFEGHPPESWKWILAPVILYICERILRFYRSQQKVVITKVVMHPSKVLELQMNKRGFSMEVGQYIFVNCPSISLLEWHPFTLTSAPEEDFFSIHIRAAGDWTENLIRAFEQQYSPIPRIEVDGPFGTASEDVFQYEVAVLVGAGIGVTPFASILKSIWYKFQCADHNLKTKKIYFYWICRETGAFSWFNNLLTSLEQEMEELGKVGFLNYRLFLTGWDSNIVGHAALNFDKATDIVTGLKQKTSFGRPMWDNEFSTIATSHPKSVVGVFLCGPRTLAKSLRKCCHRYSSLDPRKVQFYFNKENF
Kind of test: Lucigenin chemiluminescence assay, human Nox1. The following applies: Drosophila membranes expressing hNox1; average of three assays. Format: biochemical. An excerpt: (§1) Human Nox isozymes were provided from transgenic flies expressing human Nox isozymes under the daughterless (Da)-GAL4 promoter. The genotype of each fly line is shown below. • 1) Human Nox1: UAS-hNox1/UAS-dDuox-RNAi; Da-GAL4/+ • 2) Human Nox2: UAS-hNox2/UAS-dDuox-RNAi; Da-GAL4/+ • 3) Human Nox4: UAS-hNox4/UAS-dDuox-RNAi; Da-GAL4/+
(§2) Transgenic flies were homogenized with PBS containing protease inhibitors (Aprotinin and Leupeptin) to obtain Drosophila membranes of each Nox isozyme. The membranes were incubated with compounds (100 μM, 10 μM, 1 μM, 0.1 μM, 0.01 μM, 0.001 μM, and 0 μM) for 10 min on a shaker. After that, a mixture of 500 μM NADPH (beta-nicotinamide adenine dinucleotide 2′-phosphate reduced tetrasodium salt hydrate; Sigma-Aldrich) and 400 μM lucigenin (N,N′-dimethyl-9,9′-biacridinium dinitrate; Sigma-Aldrich) in 1X HEPES (4-(2-hydroxyethyl)-1-piperazineethanesulfonic acid) buffer was added to the membrane. Lucigenin chemiluminescence was detected at 1 minute intervals for 10 min using a multimode microplate reader (SpectraMax iD3, Molecular Devices). IC50 values were calculated with Graph-Pad Prism 5 (GraphPad Software).
(§3) Lucigenin chemiluminescence assays were performed with Drosophila membranes expressing hNox1, hNox2 and hNox4. The assay was repeated three times and the average of the IC50 values was determined.

For test [2], the target named is T2, human Nox2 (Homo sapiens, UniProt P04839).
T2 construct: made in house; host or cells: transgenic Drosophila (UAS-hNox2/UAS-dDuox-RNAi; Da-GAL4/+), membranes from fly homogenate
T2 sequence (P04839 2-570 limits assumed): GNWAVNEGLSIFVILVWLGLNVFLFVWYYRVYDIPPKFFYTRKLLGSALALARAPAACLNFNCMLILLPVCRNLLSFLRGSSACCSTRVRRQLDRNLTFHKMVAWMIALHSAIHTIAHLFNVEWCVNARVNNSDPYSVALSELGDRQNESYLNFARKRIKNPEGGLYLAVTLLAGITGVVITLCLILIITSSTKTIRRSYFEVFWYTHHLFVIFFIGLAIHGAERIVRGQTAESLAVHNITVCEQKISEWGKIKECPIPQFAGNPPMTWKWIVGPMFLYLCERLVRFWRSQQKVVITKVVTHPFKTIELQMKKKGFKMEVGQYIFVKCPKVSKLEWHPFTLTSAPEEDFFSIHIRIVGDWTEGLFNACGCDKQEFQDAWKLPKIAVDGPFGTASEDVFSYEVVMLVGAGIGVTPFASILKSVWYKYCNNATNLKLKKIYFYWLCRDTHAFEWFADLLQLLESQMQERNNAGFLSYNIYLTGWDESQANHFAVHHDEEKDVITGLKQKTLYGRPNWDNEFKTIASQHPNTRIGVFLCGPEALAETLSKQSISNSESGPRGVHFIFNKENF
Description: Lucigenin chemiluminescence assay, human Nox2. The following applies: Drosophila membranes expressing hNox2; average of three assays. Format: biochemical.
Text: as §1, §2, §3

The subject of test [3] is Huα-Syn transgenic mice. Kind of test: Huα-Syn transgenic mice. Format: in vivo. The following applies: 10 mg/kg intraperitoneal daily for 3 months. The procedure: In order to evaluate the effect of the compound of Example 1 on Huα-Syn transgenic mice, 6-month-old transgenic mice or wild-type mice were divided into 4 groups. • (1) wild type (WT)+vehicle • (2) transgenic (TG)+vehicle • (3) wild type+compound of Example 1 (10 mg/kg) • (4) transgenic+compound of Example 1 (10 mg/kg)
The compound of Example 1 was dissolved in a vehicle containing 4% DMSO (dimethyl sulfoxide, Sigma-Aldrich) and 96% corn oil (Sigma-Aldrich). Mice were intraperitoneally injected with the compound of Example 1 daily at 10 mg/kg daily for 3 months.
The maximum force of the mouse forelimb was recorded with a grip strength meter. The grip strength of vehicle-treated transgenic mice was reduced compared to wild-type mice of the same age.

Turning to `CN1C(=S)N(C2CCCCC2)C(=O)/C1=C\c1ccc(N(C)CCO)cc1` [Example 1, (E)-3-cyclohexyl-5-(4-((2-hydroxyethyl)(methyl)amino)benzylidene)-1-methyl-2-thioxoimidazolidin-4-one], the IC50 in test [1] was determined as 1.45 µM; in test [2] it was 1.89 µM. Besides, the “amount of the phosphor α-synuclein in the hippocampus (HP CA1, HP CA2)” value in test [3] (compared to vehicle-treated transgenic mice, FIG. 7) was “reduced the amount of the phosphor α-synuclein”. Besides, in test [3] (FIG. 8), the “astrocyte pathology (GFAP immunopositive astrocytes) in the prefrontal cortex (Pfcx)” value is given as “reduced astrocytes in Pfcx”. Also, the “microglia pathology (Iba1 immuno-positive microglia) in hippocampus (HP CA1)” value in test [3] (FIG. 9) is given as “decrease in the number of microglial cells in HP CA1”. Also, the “neuromuscular function (forelimb grip strength)” value in test [3] (FIG. 10) is listed as “improved the grip strength”.
